Results taken from patent publication US8461329B2, “Isoquinoline derivative” (Taisho Pharmaceutical Co., Ltd., priority 2008, dated 2013).
Like-named read-outs stand apart in the source and are kept apart here.

Legend:
[1] = biological target: T1, human CRTH2 expression cell KB8 (Homo sapiens, UniProt Q9Y5Y4); assay: CRTH2 binding test (3H-PGD2 binding to KB8 cells); conditions: 3H-PGD2 5 nM, 4° C., one hour
T1 construct: host or cells: KB8 cells (human CRTH2 expression cell)
T1 sequence (Q9Y5Y4 1-395): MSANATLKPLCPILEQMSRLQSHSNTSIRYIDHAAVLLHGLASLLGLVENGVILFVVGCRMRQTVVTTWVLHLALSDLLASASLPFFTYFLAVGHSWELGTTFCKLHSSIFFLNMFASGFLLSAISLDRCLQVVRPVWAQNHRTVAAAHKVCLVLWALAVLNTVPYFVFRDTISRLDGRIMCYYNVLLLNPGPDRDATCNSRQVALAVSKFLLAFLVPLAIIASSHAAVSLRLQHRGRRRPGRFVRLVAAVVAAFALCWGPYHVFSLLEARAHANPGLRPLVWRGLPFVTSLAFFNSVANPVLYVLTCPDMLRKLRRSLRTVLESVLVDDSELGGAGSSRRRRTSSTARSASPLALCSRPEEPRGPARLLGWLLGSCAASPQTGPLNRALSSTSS
Description: CRTH2 binding inhibitory activity of the compound of the present invention was considered by using a binding test between human CRTH2 expression cell KB8 (BML, INC.) and ^3H-labeled prostaglandin D2 (hereinafter, abbreviated as ^3H-PGD2, manufactured by GE Healthcare).
KB8 was suspended in a reaction buffer solution (Hank's balanced salt solution (Invitrogen) containing 10 mM HEPES (Invitrogen)), which was dispensed in a 96 well plate (Coaster) so that 2×10^5 cells/well are placed. Furthermore, the compound of the present invention and ^3H-PGD2 (final concentration: 5 nM) were added, stirred, and incubated at 4° C.
One hour later, cells were collected on GF/C Filter Plate (PerkinElmer) that had been pre-coated with 0.5% polyethyleneimine solution (SIGMA) by using a Cell Harvester (Packard BioScience), and the radioactivity of the cells was measured by using Top count NXT (PerkinElmer) (a value measured herein was represented by a measurement value “a”). The same procedure was carried out in the absence of the compound, and a measurement value “b” was obtained; and the same procedure was carried out in the absence of the compound and in the presence of non-labeled PGD2 (final concentration: 50 μM), a measurement value “c” was obtained.
The binding inhibition rate of the compound was calculated by the following calculation formula: Bonding inhibitory rate(%)=[1−(a−c)/(b−c)]×100
That is to say, by using binding inhibition rates of compounds to be tested having various concentrations, the IC50 value was calculated according to a dose-dependent inhibition curve analyzed by using XLfit (IDBS) as a data analysis software, and the calculated value was defined as an indicator of the inhibitory activity. In Table 9, A denotes an inhibitory activity showing the IC50 value of less than 50 nM; B denotes an inhibitory activity showing the IC50 value of 50 nM or greater and less than 500 nM; C denotes an inhibitory activity showing the IC50 value of 500 nM or greater and less than 1000 nM; and D denotes an inhibitory activity showing the IC50 value of 1000 nM or greater.

CRTH2 (KB8 cells) = biological target: T2, CRTH2 (KB8 cells) (Homo sapiens, UniProt Q9Y5Y4); assay: CRTH2 antagonist test (PGD2-induced intracellular calcium ion concentration increase in KB8 cells); type: cell-based
T2 construct: host or cells: KB8 cells (human CRTH2 expression cell)
T2 sequence (Q9Y5Y4 1-395): T1 sequence (Q9Y5Y4 1-395)
Procedure, shortened: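 Fluo-4-AM-loaded KB8 cells in HBSS with 10 mM HEPES and 1 mM CaCl2 received compound plus PGD2 (final 100 nM); peak fluorescence followed over time. Inhibition was computed against no-compound and unlabelled-PGD2 controls, and IC50 obtained from a dose-response curve.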

[2] = IC50 class, read-out: binding inhibitory activity
[3] = PGD2 final concentration 100 nM, Fluo-4-AM fluorescence, read-out: antagonist activity (IC50 value, inhibition of calcium ion concentration increase)

Compound O=C(O)Cc1cnc(C(=O)c2ccc(C(=O)NCCc3ccc(Cl)cc3)cc2)c2ccccc12 [Example 135, {1-[(4-{[2-(4-chlorophenyl)ethyl]carbamoyl}phenyl)carbonyl]isoquinolin-4-yl}acetic acid] has an IC50 [1, 2] of under 50 nM and an IC50 (CRTH2 (KB8 cells); [3]) of under 50 nM.
With O=C(O)Cc1cnc(C(=O)c2ccc(C(=O)Nc3ccc(Cl)c(Cl)c3)cc2)c2ccccc12 [Example 136] the IC50 [1, 2] was under 50 nM and the IC50 (CRTH2 (KB8 cells); [3]) was under 50 nM.
With O=C(O)Cc1cnc(C(=O)c2ccc(C(=O)NCCc3ccc(Cl)c(Cl)c3)cc2)c2ccccc12 [Example 137] the IC50 [1, 2] was under 50 nM and the IC50 (CRTH2 (KB8 cells); [3]) was under 50 nM.
Compound COc1ccc(CCNC(=O)c2ccc(C(=O)c3ncc(CC(=O)O)c4ccccc34)cc2)cc1 [Example 138] has an IC50 [1, 2] of under 50 nM and an IC50 (CRTH2 (KB8 cells); [3]) of under 50 nM.
In the case of O=C(O)Cc1cnc(C(=O)c2ccc(C(=O)NCCc3cccc(Cl)c3)cc2)c2ccccc12 [Example 139], the IC50 [1, 2] is reported as under 50 nM and the IC50 (CRTH2 (KB8 cells); [3]) is reported as under 50 nM.
With O=C(O)Cc1cnc(C(=O)c2ccc(OCCc3ccc(Cl)cc3)cc2)c2ccccc12 [Example 141, [1-({4-[2-(4-chlorophenyl)ethoxy]phenyl}carbonyl)isoquinolin-4-yl]acetic acid] the IC50 [1, 2] was under 50 nM and the IC50 (CRTH2 (KB8 cells); [3]) was 50 to 500 nM.
O=C(O)Cc1cnc(C(=O)c2ccc(OCCCc3ccc(Cl)cc3)cc2)c2ccccc12 [Example 142] showed an IC50 [1, 2] of under 50 nM and an IC50 (CRTH2 (KB8 cells); [3]) of 50 to 500 nM.
Work on O=C(O)Cc1cnc(C(=O)c2ccc(OCCOc3ccc(Cl)cc3)cc2)c2ccccc12 [Example 143] yielded an IC50 [1, 2] of under 50 nM, an IC50 ([1]; read-out: CRTH2 binding inhibitory activity IC50 value) of 9.9 nM and an IC50 (CRTH2 (KB8 cells); [3]) of 50 to 500 nM.
With O=C(O)Cc1cnc(Cc2ccc(NC(=O)c3ccc(Cl)c(Cl)c3)cc2)c2ccccc12 [Example 148, [1-(4-{[(3,4-dichlorophenyl)carbonyl]amino}benzyl)isoquinolin-4-yl]acetic acid] the IC50 [1, 2] was under 50 nM and the IC50 (CRTH2 (KB8 cells); [3]) was under 50 nM.
In the case of O=C(O)Cc1cnc(Cc2ccc(C(=O)NCCc3ccc(Cl)cc3)cc2)c2ccccc12 [Example 153, [1-(4-{[2-(4-chlorophenyl)ethyl]carbamoyl}benzyl)isoquinolin-4-yl]acetic acid], the IC50 [1, 2] is reported as under 50 nM, the IC50 (CRTH2 (KB8 cells); PGD2 100 nM, Fluo-4 calcium fluorescence, read-out: CRTH2 antagonist activity IC50 value) is reported as 12 nM and the IC50 (CRTH2 (KB8 cells); [3]) is reported as under 50 nM.
